Measured values taken from patent US20110136880A1, “Latrunculin-Based Macrolides and Their Uses” (priority 2009, published 2011).

Assays:
[1] = test system: β-catenin in C2C12 cells; experiment: Wnt/β-catenin signaling, β-catenin levels in C2C12 cells; format: cell-based
From the text: (§1) Effects on Wnt/β-catenin. […] These two compounds affected both alkaline phosphatase and β-catenin levels in C2C12 cells.

[2] = test system: alkaline phosphatase in C2C12 cells; experiment: Alkaline phosphatase in C2C12 cells (Wnt pathway); format: cell-based; conditions: Mus musculus
From the text: as §1

[3] = test system: prostate cancer cell line PC-3; experiment: Invasion assay, PC-3; format: cell-based, human; conditions: without cytotoxicity
[4] = test system: MDA-MB-231 cells; experiment: Cultrex BME cell invasion assay; format: cell-based, human; conditions: for fold more active against cell invasion than latrunculin A (compound 1): 0.5 μM
Experimental: The anti-invasive activities of compounds 1-14 were measured using a 96 well basement membrane extract (BME) cell invasion assay kit against the highly metastatic MDA-MB-231 cells. This assay employs a simplified Boyden Chamber with a polyethylene terephthalate membrane (8 μm pore size). Cell invasion was quantified using calcein-acetomethylester (calcein-AM). Cells internalize calcein-AM; intracellular esterases then cleave the acetomethylester moiety to generate free calcein. Free calcein fluoresces brightly. This fluorescence may be used to quantify the number of cells that have invaded across the BME. To correlate the anti-invasive activities of the latrunculin A derivatives with their actin-disrupting activities, compounds 1-14 were each tested at non-toxic concentrations. […] Accordingly, all compounds were tested at 0.1, 0.5, and 1.0 μM. Compound 3 killed 17% of MDA-MB-231 cells at 1.0 μM, while the same dose of compound 3 inhibited 95% of MDA-MB-231 cells' invasion. […] The anti-invasive activities of compounds 1-14 are attributed primarily to the inhibition of actin polymerization, not to cell death per se.
Cultrex® Cell Invasion Assay. Anti-invasive activities were measured using Trevigen's Cultrex® Cell Invasion Assay as described in K. Tamilarasan et al., BMC Cell Biol. 2006, 7, 17-30; and P. Borghesani et al., Development. 2002, 6, 1435-1442. About 50 μL of basement membrane extract (BME) coat was added to each well. After incubation for 4 h at 37° C. under 5% CO2, 50,000 MDA-MB-231 cells in 50 μL of serum free RPMI medium were added to each well in the top chamber, along with the test compound at one of several concentrations (0.1, 0.5, 1 μM). About 150 μL of RPMI medium was added to the lower chamber in 10% FBS and penicillin/streptomycin, using fibronectin ([…]) and N-formyl-met-leu-phe (10 nM) as chemoattractants. Cells were allowed to migrate to the lower chamber at 37° C. under 5% CO2. After 24 h, the top and bottom chambers were aspirated and washed with the washing buffer that had been supplied with the kit. About 100 μL of Cell Dissociation Solution/Calcein-AM solution was added to the bottom chamber, and the cells were incubated at 37° C. under CO2 for 1 h. Briefly, the cells internalize calcein-AM, and then the intracellular esterases cleave the AM moiety to generate free calcein. […] The number of cells that had invaded through the BME coat was calculated using a standard curve.

[5] = test system: MDA-MB-231; experiment: Wound-healing assay; format: cell-based, human; conditions: 100 nM dose
Experimental: Wound-healing assay. MDA-MB-231 cells are plated onto sterile 24-well plates and allowed to form a confluent cell monolayer (>95% confluence) overnight. Wounds are then inflicted on each cell monolayer using a sterile 200 μL pipette tip. Media are removed, and cells are washed twice with PBS and once with fresh serum-free media. Test latrunculin compounds at various concentrations (100 nM-10 μM) in fresh, serum-free media are added to each well and incubated for 24 h under serum-starved conditions. Media are then removed, and the cells are washed, fixed and stained using Diff-Quick™ staining (Dade Behring Diagnostics, Aguada, Puerto Rico). Cells that have migrated across the inflicted wound are counted under the microscope in three or more randomly selected fields (magnification: 400×). All experiments are conducted independently in triplicate replications.

[6] = test system: HeLa cells; experiment: HeLa cell G2/M assays; format: cell-based
From the text: This assay measures HeLa cell proliferation, apoptosis, DNA content and condensation, cyclin B, and phosphor-histone H3.

[7] = test system: array of kinases; experiment: Kinase profiling; format: binding; conditions: any kinase tested
Experimental: Latrunculins B and H (compounds 20 and 14, respectively) were tested in a panel of assays including ApoE secretion, anti-angiogenesis, G2/M, Wnt pathway, insulin secretion, and an array of kinase profiling. The G2/M assays include HeLa cell proliferation, apoptosis, DNA content, and condensation, cyclin B, and phosphor-histone H3. […] Alkaline phosphatases may perhaps be a target of the anti-invasive latrunculin 11.

[8] = test system: breast, CNS, colon, lung, melanoma, ovarian, and renal cancer cells; experiment: Antiproliferative testing against 60 cell lines (NSC compounds); format: cell-based

SMILES | Wnt/β-catenin signaling [1] | IC50 ([1]; Mus musculus) | IC50 [2] | anti-invasive activity against PC-3 [3] | fold more active against cell invasion than latrunculin A (compound 1) [4] | anti-migratory activity [5] | times greater inhibition against G2-M-phase HeLa cells compared to nocodazole ([6]; various G2_M assays) | affinity toward kinases [7] | number of the 60 cell lines tested with antiproliferative activity ([8]; dose of 10 μM) | log10GI50 ([8]; five-points dose-response, range over active cell lines) | factor of greater activity than compound 1, MDA-MB-231 invasion assay ([4]; assessed at 1 μM) | dose range of strong growth inhibition of HeLa cells at early interphase ([6]; flow cytometry) | activity in G2_M assays compared with nocodazole ([6]; less active than compound 11)
COc1ccc(CC(=O)N2C(=O)SC[C@H]2[C@@]2(OC)C[C@H]3C[C@@H](CC[C@H](C)/C=C\C=C\CC/C(C)=C\C(=O)O3)O2)cc1 [Compound 11, 17-O-Methyl-N-(7′-methoxyphenylacetyl)latrunculin A] | strongly inhibited | 7 nM | 4 nM | potent anti-invasive activity | 4.6 fold | potent anti-migratory | 3.5-51.0 times | – | – | – | – | – | –
C/C1=C/C(=O)O[C@@H]2C[C@@H](CC[C@H](C)/C=C\C=C\CC1)O[C@@](O)([C@@H]1CSC(=O)N1CO)C2 [Compound 14, N-Hydroxymethyllatrunculin A] | – | – | – | – | 2.1 fold | – | – | Neither compound 20 nor compound 14 showed affinity toward any kinase tested | 18 | −7.13 to −7.83 | 2.7 | 0.04 to 1.25 µM | greater activity than did nocodazole
